47 compounds from patent US7674823B2, “DNA-PK inhibitors” (Cancer Research Technology Limited, priority 2001, dated 2010) can be followed below.

Structures are written as SMILES. Read-outs that look alike come from different tables or passages of the source.

In data set [1] the target is T1, Mammalian DNA-PK, isolated from Hela cell nuclear extract (Homo sapiens, UniProt P78527).
T1 construct: Mammalian DNA-PK, isolated from Hela cell nuclear extract; endogenous in cells; host or cells: HeLa cell nuclear extract (purified per Gell and Jackson 1999)
The experiment in a line: DNA-PK inhibition assay (33P-ATP, filter binding). It counts as biochemical. The method, then:
In order to assess the inhibitory action of the compounds against DNA-PK in vitro, the following assay was used to determine IC50 values.
The total assay volume per well was 40 μl.
After 10 minutes of incubation at 30° C. the reactions were initiated by the addition of Na-ATP (50 μM final), ^33p-γATP and a 30mer double stranded DNA oligonucleotide (10 ng/μl) in a volume of 10 μl. Designated positive and negative reaction wells were done in combination with compound wells (unknowns) in order to calculate % enzyme activities. The plates were then shaken for 2 minutes and incubated at 30° C. for 45 minutes.
Following the incubation, the reactions were quenched by the addition of 50 μl 30% acetic acid to each well. The plates were then shaken for 5 minutes and the contents of each plate (80 μl from each well) transferred over to a 96 well Polyfiltronics filtration plate, containing P81-phosphocellulose membrane (TRADE MARK)(Whatman, UK). The solutions were vacuum pumped through the membrane and each well membrane washed four times using 300 μl of 15% acetic acid. The well membranes were then air dried and 20 μl of scintillant was added to each well.
The plates were transferred to a TopCount NXT (TRADE MARK) (Packard, UK) for scintillation counting. Values recorded are counts per minute (cpm) following a 1 minute counting time for each well.
The enzyme activity for each compound is then calculated using the following equation: […]
These are determined over a range of different concentrations, normally from 10 μM down to 0.01 μM. Such IC50 values are used as comparative values to identify increased compound potencies.

[2] abbreviates: IC50 of less than about 1 μM and/or % inhibition of more than about 50 at 1 μM, read-out: DNA-PK inhibition IC50 (particular efficacy).
The mark [3] stands for this setting: concentration at which 50% of the enzyme activity is inhibited, read-out: DNA-PK Inhibition IC50.

The term melting point denotes the temperature, or range, at which the solid turns liquid. One may read the IC50 as the midpoint of a concentration-inhibition curve.

`O=c1cc(N2CCOCC2)cc(-c2ccccc2)o1` [Compound 1, 4-morpholin-4-yl-6-(phenyl)-pyran-2-one]: the melting point was in the range of 161 to 162 °C.
`CC(C)(C)c1ccc(-c2cc(N3CCOCC3)cc(=O)o2)cc1` [Compound 2, 4-morpholin-4-yl-6-(4-(t-butyl)phenyl)-pyran-2-one]: the melting point lay in the range of 230 to 232 °C.
The compound `COc1ccc(-c2cc(N3CCOCC3)cc(=O)o2)cc1` [Compound 3, 6-(4-methoxyphenyl)-4-morpholin-4-yl-pyran-2-one] displayed a melting point of 212 to 213 °C.
Take `CC1CCC(C)N(c2cc(=O)n3ccc4ccccc4c3n2)C1` (stereo not shown) [Compound 7, 2-(2,5-Dimethyl-piperidin-1-yl)pyrimido[2,1-a]isoquinolin-4-one]: the melting point lay in the range of 214 to 216 °C.
The compound `O=c1cc(N2CCCC(CO)C2)nc2c3ccccc3ccn12` (stereo not shown) [Compound 9, 2-(3-Hydroxymethyl-piperidin-1-yl)pyrimido[2,1-a]isoquinolin-4-one] had a melting point of 165 to 166 °C.
Turning to `O=c1cc(NCC2CCCO2)nc2c3ccccc3ccn12` (stereo not shown) [Compound 10, 2-[(Tetrahydro-furan-2-ylmethyl)-amino]pyrimido[2,1-a]isoquinolin-4-one], the melting point was 174 to 175 °C.
In the case of `O=c1cc(N(CCO)CCO)nc2c3ccccc3ccn12` [Compound 11, 2-[Bis-(2-hydroxy-ethyl)-amino]pyrimido[2,1-a]isoquinolin-4-one], the melting point was 211 to 212 °C.
Still for that read-out and setting: next, `CN(CC(O)c1ccccc1)c1cc(=O)n2ccc3ccccc3c2n1` (stereo not shown) [Compound 16, 2-[(2-Hydroxy-2-phenyl-ethyl)-methyl-amino]-pyrimido[2,1-a]isoquinolin-4-one]: 195 to 196 °C; `CN(CCC#N)c1cc(=O)n2ccc3ccccc3c2n1` [Compound 17, 3-[Methyl-(4-oxo-4H-pyrimido[2,1-a]isoquinolin-2-yl)-amino]-propionitrile]: 166 to 167 °C.
On the same count and under the same terms, next, `O=c1cc(NCCc2cccs2)nc2c3ccccc3ccn12` [Compound 18, 2-(2-Thiophen-2-yl-ethylamino)-pyrimido[2,1-a]isoquinolin-4-one]: 162 to 163 °C; `O=c1cc(NCC(O)CO)nc2c3ccccc3ccn12` (stereo not shown) [Compound 19, 2-(2,3-Dihydroxypropylamino)-pyrimido[2,1-a]isoquinolin-4-one]: 215 to 216 °C.
The same measure, in the same setting: under `CC(O)CNc1cc(=O)n2ccc3ccccc3c2n1` (stereo not shown) [Compound 20, 2-(2-Hydroxypropylamino)-pyrimido[2,1-a]isoquinolin-4-one] stands 199 to 200 °C; under `O=c1cc(NCC(O)c2cccc(O)c2)nc2c3ccccc3ccn12` (stereo not shown) [Compound 21, 2-[2-Hydroxy-2-(3-hydroxy-phenyl)-ethylamino]-pyrimido[2,1-a]isoquinolin-4-one], 159 to 161 °C; under `O=c1cc(NCCO)nc2c3ccccc3ccn12` [Compound 22, 2-(2-Hydroxy-ethylamino)-pyrimido[2,1-a]isoquinolin-4-one], 218 to 221 °C.
In the case of `CC(O)C(=O)Nc1ccc(-c2cc(=O)cc(N3CCOCC3)o2)cc1` (stereo not shown) [Compound 268], the IC50 in data set [1] (setting [2]) was less than 1 µM.
Take `CCOC(=O)CC(=O)Nc1ccc(-c2cc(=O)cc(N3CCOCC3)o2)cc1` [Compound 269]: the concentration for half-maximal inhibition (IC50) in data set [1] (setting [2]) was less than 1 µM.
The same measure, in the same setting: next, `O=C(CSc1ccccc1)Nc1ccc(-c2cc(=O)cc(N3CCOCC3)o2)cc1` [Compound 270]: less than 1 µM; `O=C(Cc1cccs1)Nc1ccc(-c2cc(=O)cc(N3CCOCC3)o2)cc1` [Compound 271]: less than 1 µM; `O=C(Nc1ccc(-c2cc(=O)cc(N3CCOCC3)o2)cc1)C1CCCN1C(=O)C(F)(F)F` (stereo not shown) [Compound 279]: less than 1 µM.
Compound `O=c1cc(-c2ccccc2F)oc(N2CCOCC2)c1` [Compound 290, 6-(2-fluorophenyl)-2-(morpholin-4-yl)pyran-4-one] gave a melting point of 137 to 138 °C.
Still for that read-out and setting: next, `O=c1cc(N2CCCCC2)oc2c1ccc1ccccc12` [Compound 295, 2-piperidin-1-yl-benzo[h]chromen-4-one]: 205 to 207 °C; `O=c1cc(N2CCOCC2)oc2ccc(-c3ccccc3)cc12` [Compound 298, 2-(Morpholin-4-yl)-6-phenylchromen-4-one]: 218 to 220 °C.
Still for that read-out and setting: next, `Cc1cccc2c(=O)cc(N3CCOCC3)oc12` [Compound 302, 8-Methyl-2-morpholin-4-yl-chromen-4-one]: 148 °C; `COc1cccc2c(=O)cc(N3CCOCC3)oc12` [Compound 303, 8-Methoxy-2-morpholin-4-yl-chromen-4-one]: 165 °C.
Consider `O=c1cc(N2CCOCC2)oc2c(OS(=O)(=O)C(F)(F)F)cccc12` [Compound 305, Trifluoro-methanesulfonic acid 2-morpholin-4-yl-4-oxo-4H-chromen-8-yl ester], for which the melting point lay within 177.8 to 178.9 °C.
Compound `O=c1cc(N2CCOCC2)oc2cc(OS(=O)(=O)C(F)(F)F)ccc12` [Compound 306, Trifluoro-methanesulfonic acid 2-morpholin-4-yl-4-oxo-4H-chromen-7-yl ester] had a melting point of 143 to 145 °C.
Same read-out and setting: next, `O=c1cc(N2CCOCC2)oc2ccc(Br)cc12` [Compound 308, 6-Bromo-2-morpholin-4-yl-chromen-4-one]: 147 to 149 °C; `C[C@@H]1CN(c2cc(=O)c3ccc4ccccc4c3o2)C[C@H](C)O1` [Compound 309, 2-(2,6-cis-dimethyl-morpholin-4-yl)-benzo[h]chromen-4-one]: 211 to 212.5 °C.
Still for that read-out and setting: next, `O=c1cc(N2CCNCC2)oc2c1ccc1ccccc12` [Compound 311, 2-piperazin-1-yl-benzo[h]chromen-4-one]: 208 to 209 °C.
As to `O=c1cc(N2CCCC2)oc2c1ccc1ccccc12` [Compound 312, 2-pyrrolidin-1-yl-benzo[h]chromen-4-one], the IC50 in data set [1] (setting [3]) was 10 µM.
For the compound `O=c1cc(N2CCC(CO)CC2)oc2c1ccc1ccccc12` [Compound 318, 2-(4-Hydroxymethyl-piperidin-1-yl)-benzo[h]chromen-4-one], in data set [1] (setting [2]), the IC50 was less than 1 µM.
As to `O=c1cc(N2CCSC2)oc2c1ccc1ccccc12` [Compound 330, 2-(Thiazolidin-3-yl)-benzo[h]chromen-4-one], in data set [1] (setting [3]), the IC50 turned out to be 20 µM.
`N#Cc1ccc(COc2ccc3c(=O)cc(N4CCOCC4)oc3c2)cc1` [Compound 338, 7-(4-cyano-benzyloxy)-2-morpholin-4-yl-chromen-4-one]: the half-maximal inhibitory concentration (IC50) in data set [1] (setting [2]) was less than 1 µM; in data set [1] (setting [3]), 0.95 µM.
Regarding `COC(=O)c1ccc(COc2ccc3c(=O)cc(N4CCOCC4)oc3c2)cc1` [Compound 339, Methyl 4-(2-(morpholin-4-yl)-4-oxo-4H-chromen-7-yloxymethyl)-benzoate], the IC50 in data set [1] (setting [2]) was less than 1 µM.
The same measure, in the same setting: under `COC(=O)c1cccc(COc2ccc3c(=O)cc(N4CCOCC4)oc3c2)c1` [Compound 340, Methyl 3-(2-(morpholin-4-yl)-4-oxo-4H-chromen-7-yloxymethyl)-benzoate] stands less than 1 µM.
In the case of `O=c1cc(N2CCOCC2)oc2cc(OCc3cccc(Cl)c3)ccc12` [Compound 341, 7-(3-Chlorobenzyloxy)-2-(morpholin-4-yl)-chromen-4-one], the 50% inhibitory concentration (IC50) was less than 1 µM in data set [1] (setting [2]) and 0.65 µM in data set [1] (setting [3]).
As to `Cc1cccc(COc2ccc3c(=O)cc(N4CCOCC4)oc3c2)c1` [Compound 342, 7-(3-Methylbenzyloxy)-2-(morpholin-4-yl)-chromen-4-one], the half-inhibitory concentration (IC50) in data set [1] (setting [3]) amounted to 0.8 µM.
For the compound `O=c1cc(N2CCOCC2)oc2ccc(O)cc12` [Compound 343, 6-Hydroxy-2-(morpholin-4-yl)-chromen-4-one], the half-inhibitory concentration (IC50) in data set [1] (setting [3]) was found to be 0.7 µM.
Regarding `O=c1cc(N2CCOCC2)oc2cc(OCCS(=O)(=O)c3ccccc3)ccc12` [Compound 366], the concentration for half-maximal inhibition (IC50) in data set [1] (setting [2]) is less than 1 µM.
`O=C1c2ccccc2C(=O)N1Cc1cccc(-c2ccc3c(=O)cc(N4CCOCC4)oc3c2)c1` [Compound 375]: the IC50 in data set [1] (setting [2]) is less than 1 µM.
Take `COc1ccc(-c2cccc3c(=O)cc(N4CCOCC4)oc23)cc1` [Compound 385]: the IC50 in data set [1] is less than 1 µM.
In the case of `O=c1cc(N2CCOCC2)oc2c(-c3cccc(-c4ccccc4)c3)cccc12` [Compound 389], the concentration for half-maximal inhibition (IC50) in data set [1] is less than 1 µM.
For `O=c1cc(N2CCOCC2)oc2c(-c3ccc(CO)cc3)cccc12` [Compound 394], the IC50 in data set [1] was less than 1 µM.
Take `O=c1cc(N2CCOCC2)oc2c(-c3ccsc3)cccc12` [Compound 403]: the concentration for half-maximal inhibition (IC50) in data set [1] (setting [2]) is less than 1 µM.
As for `O=c1cc(N2CCOCC2)oc2c(-c3cc4ccccc4s3)cccc12` [Compound 408], the half-inhibitory concentration (IC50) in data set [1] (setting [2]) is less than 1 µM.
Consider `CC(=O)c1ccc(-c2cccc3c(=O)cc(N4CCOCC4)oc23)s1` [Compound 409], for which the IC50 in data set [1] (setting [2]) is less than 1 µM.
The same measure, in the same setting: next, `O=c1cc(N2CCOCC2)oc2c(-c3cccc4c3oc3ccccc34)cccc12` [Compound 410]: less than 1 µM.
